Source: ChEMBL document CHEMBL1201862, “PubChem BioAssay data set” (2004)
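Each compound was tested at five concentrations against cells in 96-well plates for 48 hours. Abbreviation: GI50, concentration required for 50% inhibition of growth.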 Active and inactive are the calls of the source. Cut-off read from the data, not from the text of the source: active = GI50 up to about 1.1 µM and inactive = higher.

What was measured:
Assay in all cases: inhibition of tumour cell growth, NCI panel, 48 h
SNB-19 = system: SNB-19
A549 = system: A549
IGROV-1 = system: IGROV-1
U-251 = system: U-251
MDA-N = system: MDA-N
DU-145 = system: DU-145
TK-10 = system: TK-10
OVCAR-5 = system: OVCAR-5
NCI/ADR-RES = system: NCI/ADR-RES
COLO 205 = system: COLO 205
SK-MEL-5 = system: SK-MEL-5
RXF 393 = system: RXF 393
OVCAR-3 = system: OVCAR-3
KM12 = system: KM12
NCI-H460 = system: NCI-H460
MOLT-4 = system: MOLT-4
UACC-62 = system: UACC-62
Hs-578T = system: Hs-578T
786-0 = system: 786-0
ACHN = system: ACHN
RPMI-8226 = system: RPMI-8226
EKVX = system: EKVX
CAKI-1 = system: CAKI-1
M14 = system: M14
SW-620 = system: SW-620
T47D = system: T47D
SN12C = system: SN12C
MCF7 = system: MCF7
UO-31 = system: UO-31
CCRF-CEM = system: CCRF-CEM
HCT-15 = system: HCT-15
OVCAR-8 = system: OVCAR-8
MDA-MB-435 = system: MDA-MB-435
SK-MEL-28 = system: SK-MEL-28
UACC-257 = system: UACC-257
NCI-H226 = system: NCI-H226
SK-MEL-2 = system: SK-MEL-2
MDA-MB-231 = system: MDA-MB-231
SF-295 = system: SF-295
PC-3 = system: PC-3
HCT-116 = system: HCT-116
LOX IMVI = system: LOX IMVI
NCI-H23 = system: NCI-H23
K562 = system: K562
A498 = system: A498
NCI-H522 = system: NCI-H522
OVCAR-4 = system: OVCAR-4
HOP-62 = system: HOP-62
HT-29 = system: HT-29
HOP-92 = system: HOP-92
HL-60 = system: HL-60
BT-549 = system: BT-549
Malme-3M = system: Malme-3M
SF-268 = system: SF-268
HCC 2998 = system: HCC 2998
SF-539 = system: SF-539
SR = system: SR

## O=C1NC(=S)NC(=O)C1C(c1ccc([N+](=O)[O-])cc1)C1C(=O)NC(=S)NC1=O.c1ccncc1
SNB-19
  GI50: > 100 µM (inactive)
A549
  GI50: > 100 µM (inactive)
IGROV-1
  GI50: > 100 µM (inactive)
U-251
  GI50: > 100 µM (inactive)
MDA-N
  GI50: > 100 µM (inactive)
DU-145
  GI50: > 100 µM (inactive)
TK-10
  GI50: > 100 µM (inactive)
OVCAR-5
  GI50: > 100 µM (inactive)
NCI/ADR-RES
  GI50: > 100 µM (inactive)
COLO 205
  GI50: > 100 µM (inactive)
SK-MEL-5
  GI50: > 100 µM (inactive)
RXF 393
  GI50: > 100 µM (inactive)
OVCAR-3
  GI50: > 100 µM (inactive)
KM12
  GI50: > 100 µM (inactive)
NCI-H460
  GI50: > 100 µM (inactive)
MOLT-4
  GI50: > 100 µM (inactive)
UACC-62
  GI50: > 100 µM (inactive)
Hs-578T
  GI50: > 100 µM (inactive)
786-0
  GI50: > 100 µM (inactive)
ACHN
  GI50: > 100 µM (inactive)
RPMI-8226
  GI50: > 100 µM (inactive)
EKVX
  GI50: > 100 µM (inactive)
CAKI-1
  GI50: > 100 µM (inactive)
M14
  GI50: > 100 µM (inactive)
SW-620
  GI50: > 100 µM (inactive)
T47D
  GI50: > 100 µM (inactive)
SN12C
  GI50: > 100 µM (inactive)
MCF7
  GI50: > 100 µM (inactive)
UO-31
  GI50: > 100 µM (inactive)
CCRF-CEM
  GI50: > 100 µM (inactive)
HCT-15
  GI50: > 100 µM
OVCAR-8
  GI50: > 100 µM (inactive)
MDA-MB-435
  GI50: > 100 µM (inactive)
SK-MEL-28
  GI50: > 100 µM (inactive)
UACC-257
  GI50: > 100 µM (inactive)
NCI-H226
  GI50: > 100 µM (inactive)
SK-MEL-2
  GI50: > 100 µM (inactive)
MDA-MB-231
  GI50: > 100 µM (inactive)
SF-295
  GI50: > 100 µM (inactive)
PC-3
  GI50: > 100 µM (inactive)
HCT-116
  GI50: > 100 µM (inactive)
LOX IMVI
  GI50: > 100 µM (inactive)
NCI-H23
  GI50: > 100 µM (inactive)
K562
  GI50: > 100 µM (inactive)
A498
  GI50: > 100 µM (inactive)
NCI-H522
  GI50: > 100 µM (inactive)
OVCAR-4
  GI50: > 100 µM (inactive)
HOP-62
  GI50: > 100 µM (inactive)
HT-29
  GI50: > 100 µM (inactive)
HOP-92
  GI50: > 100 µM (inactive)
HL-60
  GI50: > 100 µM (inactive)
BT-549
  GI50: > 100 µM (inactive)

## Cc1cc(=O)oc2c(OS(C)(=O)=O)c(OS(C)(=O)=O)ccc12
SNB-19
  GI50: > 100 µM (inactive)
A549
  GI50: > 100 µM (inactive)
Malme-3M
  GI50: > 100 µM (inactive)
SF-268
  GI50: > 100 µM (inactive)
IGROV-1
  GI50: > 100 µM (inactive)
U-251
  GI50: > 100 µM (inactive)
MDA-N
  GI50: > 100 µM (inactive)
TK-10
  GI50: > 100 µM (inactive)
OVCAR-5
  GI50: > 100 µM (inactive)
NCI/ADR-RES
  GI50: > 100 µM (inactive)
COLO 205
  GI50: > 100 µM (inactive)
SK-MEL-5
  GI50: > 100 µM (inactive)
OVCAR-3
  GI50: > 100 µM (inactive)
KM12
  GI50: > 100 µM (inactive)
NCI-H460
  GI50: > 100 µM (inactive)
MOLT-4
  GI50: > 100 µM (inactive)
UACC-62
  GI50: > 100 µM (inactive)
Hs-578T
  GI50: > 100 µM (inactive)
786-0
  GI50: > 100 µM (inactive)
ACHN
  GI50: > 100 µM (inactive)
RPMI-8226
  GI50: > 100 µM (inactive)
EKVX
  GI50: > 100 µM (inactive)
CAKI-1
  GI50: > 100 µM (inactive)
M14
  GI50: > 100 µM (inactive)
SW-620
  GI50: > 100 µM (inactive)
SN12C
  GI50: > 100 µM (inactive)
MCF7
  GI50: > 100 µM (inactive)
UO-31
  GI50: > 100 µM (inactive)
CCRF-CEM
  GI50: > 100 µM (inactive)
HCT-15
  GI50: > 100 µM
OVCAR-8
  GI50: > 100 µM (inactive)
MDA-MB-435
  GI50: > 100 µM (inactive)
SK-MEL-28
  GI50: > 100 µM (inactive)
HCC 2998
  GI50: > 100 µM (inactive)
UACC-257
  GI50: > 100 µM (inactive)
NCI-H226
  GI50: > 100 µM (inactive)
SK-MEL-2
  GI50: > 100 µM (inactive)
MDA-MB-231
  GI50: > 100 µM (inactive)
SF-295
  GI50: > 100 µM (inactive)
PC-3
  GI50: > 100 µM (inactive)
HCT-116
  GI50: > 100 µM (inactive)
LOX IMVI
  GI50: > 100 µM (inactive)
SF-539
  GI50: > 100 µM (inactive)
NCI-H23
  GI50: > 100 µM (inactive)
K562
  GI50: > 100 µM (inactive)
A498
  GI50: > 100 µM (inactive)
NCI-H522
  GI50: > 100 µM (inactive)
SR
  GI50: > 100 µM (inactive)
OVCAR-4
  GI50: > 100 µM (inactive)
HOP-62
  GI50: > 100 µM (inactive)
HT-29
  GI50: > 100 µM (inactive)
HOP-92
  GI50: > 100 µM (inactive)
HL-60
  GI50: > 100 µM (inactive)
BT-549
  GI50: > 100 µM (inactive)
